Read-outs that look alike come from different tables or passages of the source. *1 amine or outer side, *2 acyl side, *3 side chain or, on linkers, in order; H or OH if unused. Where a SMILES comes first, the peptide text is derived from it. Bridges are numbered along the chain shown (N, C = ends). [ ]: non-standard residue; d: D form. The star is where a group is joined. X2 = O=C(CCOCC(COCCC(=O)NCCOCCOCCOCCOC[C@H]1OC[C@H](Nc2cncc(C(F)(F)F)n2)[C@@H](O)[C@H]1O)NCC(=O)*)NCCOCCOCCOCCOC[C@H]1OC[C@H](Nc2cncc(C(F)(F)F)n2)[C@@H](O)[C@H]1O; X1 = O=C([C@@H]1C[C@H](N[*:3])CN1[*:1])[*:2]
Key:
[1] = system: HepG2 cells; experiment: Cellular uptake assay of AF488-labeled antibody (HepG2); type: cell-based; settings: HepG2 cells
Procedure, shortened: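 Ternary-complex uptake via ASGPR was imaged after fixation: the read-out is AF488-positive HepG2 cells divided by total DAPI nuclei. Degrader dilutions (IgG- or DNP-based, 0.1% DMSO final) were co-incubated 6 h at 37° C. with 100 nM of the corresponding fluorescent antibody.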

[2] = molecular target: T1, ASGPR receptor on the cell surface (HepG2 cells) (Homo sapiens, UniProt P07306); experiment: Ternary complex formation assay (flow cytometry, HepG2); type: cell-based
T1 construct: host or cells: HepG2
T1 sequence (P07306 1-291): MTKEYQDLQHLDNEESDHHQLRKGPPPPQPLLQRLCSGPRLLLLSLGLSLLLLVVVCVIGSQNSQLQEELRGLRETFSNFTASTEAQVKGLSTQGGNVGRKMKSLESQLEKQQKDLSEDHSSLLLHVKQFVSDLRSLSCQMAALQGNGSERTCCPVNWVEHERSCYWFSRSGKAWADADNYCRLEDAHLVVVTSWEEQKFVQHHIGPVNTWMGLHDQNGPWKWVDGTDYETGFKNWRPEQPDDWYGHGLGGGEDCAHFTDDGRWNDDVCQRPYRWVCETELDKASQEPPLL
T1 sequence (P07307 1-311 partner): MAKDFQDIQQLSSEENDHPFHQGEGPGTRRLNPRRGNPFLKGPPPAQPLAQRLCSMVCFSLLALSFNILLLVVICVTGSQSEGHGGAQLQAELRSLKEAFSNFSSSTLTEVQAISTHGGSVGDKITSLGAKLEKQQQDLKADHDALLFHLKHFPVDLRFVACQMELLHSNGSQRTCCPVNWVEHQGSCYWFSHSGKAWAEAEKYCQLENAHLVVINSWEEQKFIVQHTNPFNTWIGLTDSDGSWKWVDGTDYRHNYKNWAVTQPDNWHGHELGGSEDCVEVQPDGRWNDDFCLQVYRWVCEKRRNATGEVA
Procedure, shortened: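 HepG2 cells (1×10^5/well) incubated 1 h at 4 °C with 100 nM AF488-labeled anti-human IgG plus serial IgG-based degrader, or 100 nM AF488 rabbit anti-DNP plus serial DNP-based degrader. After washing, cell-associated AF488 MFI read by flow cytometry; peak MFI marks optimal degrader concentration for ternary complex.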

[3] = molecular target: T2, ASGPR (Homo sapiens, UniProt P07306); experiment: Affinity to ASGPR by surface plasmon resonance (SPR)
T2 sequence (P07306 1-291): T1 sequence (P07306 1-291)

[4] = molecular target: IgG; experiment: Affinity to IgG by surface plasmon resonance (SPR); type: binding
Experimental: Immobilization levels ranging from 1000-1300 resonance units (RU) are obtained. The running buffer is 10 mM HEPES, pH 7.4, 400 mM NaCl, 0.005% P20, […].

[5] = HepG2 cells, ternary complex formation, read-out: TCF EC50
[6] = TCF EC50, HepG2 cells, ternary complex formation

| EC50 [2, 5] [nM] | SMILES | EC50 ([1]; read-out: Uptake EC50) [nM] | Kd [3] [nM] | Kd ([4]; SPR, read-out: IgG KD) [nM] | EC50 [2] [nM] | EC50 [2, 6] [nM] | EC50 ([1]; 100 nM AF488-labeled antibody, 37° C. for 6 hours, class symbols, read-out: Uptake Assay EC50) [nM] | EC50 ([2]; read-out: Ternary Complex EC50) [nM] | Kd ([4]; Biacore 8K, 25° C., IgG on CM5 chip, read-out: IgG SPR Binding Kd) [nM] |
| --- | --- | --- | --- | --- | --- | --- | --- | --- | --- |
| 500 to 1000 | CC(C)C[C@@H]1NC(=O)[C@H](Cc2cnc[nH]2)NC(=O)[C@H](Cc2c[nH]c3ccccc23)NC(=O)[C@H](C)NC(=O)[C@@H]2CSSC[C@H](NC(=O)[C@H](Cc3c[nH]c4ccccc34)NC(=O)[C@H](C(C)C)NC(=O)[C@H](CC(C)C)NC(=O)[C@H](CCC(=O)O)NC(=O)CNC1=O)C(=O)N[C@@H]([C@@H](C)O)C(=O)N1CCC[C@@H]1C(=O)N1C[C@@H](NC(=O)c3ccc(-c4ccc(C(=O)NC[C@H]5OC[C@H](Nc6cncc(C(F)(F)F)n6)[C@@H](O)[C@H]5O)cc4)cc3)C[C@H]1C(=O)N[C@@H](CC(=O)O)C(=O)N2 [Compound 72] | < 100 | < 100 | < 100 |  |  |  |  |  |
|  | CC(C)C[C@@H]1NC(=O)[C@H](Cc2c[nH]cn2)NC(=O)[C@H](Cc2c[nH]c3ccccc23)NC(=O)[C@H](C)NC(=O)[C@@H]2CSSC[C@H](NC(=O)[C@H](Cc3c[nH]c4ccccc34)NC(=O)[C@H](C(C)C)NC(=O)[C@H](CC(C)C)NC(=O)[C@H](CCC(=O)O)NC(=O)CNC1=O)C(=O)N[C@@H]([C@@H](C)O)C(=O)N1CCC[C@@H]1C(=O)N1C[C@@H](NC(=O)c3ccc(N4CCC(CN5CCN(C[C@H]6OC[C@H](Nc7cncc(C(F)(F)F)n7)[C@@H](O)[C@H]6O)CC5)CC4)cc3)C[C@H]1C(=O)N[C@@H](CC(=O)O)C(=O)N2 [Compound 68] | < 100 | < 100 | < 100 | < 100 |  |  |  |  |
|  | CC(C)C[C@@H]1NC(=O)[C@H](C)NC(=O)CNC(=O)[C@H](CC(C)C)NC(=O)[C@H](Cc2cnc[nH]2)NC(=O)[C@H](Cc2c[nH]c3ccccc23)NC(=O)[C@H](C)NC(=O)[C@@H]2CSSC[C@H](NC(=O)[C@H](Cc3c[nH]c4ccccc34)NC(=O)[C@H](C(C)C)NC1=O)C(=O)N[C@@H]([C@@H](C)O)C(=O)N1CCC[C@@H]1C(=O)N1C[C@@H](NC(=O)CNC(COCCC(=O)NCCOCCOCCOCCOC[C@H]3OC[C@H](Nc4cncc(C(F)(F)F)n4)[C@@H](O)[C@H]3O)COCCC(=O)NCCOCCOCCOCCOC[C@H]3OC[C@H](Nc4cncc(C(F)(F)F)n4)[C@@H](O)[C@H]3O)C[C@H]1C(=O)N[C@@H](C)C(=O)N2 [Compound 76] (cyclo(ACAWHLGALVWCT[dP][X1](X2)); disulfide 2-12) | < 100 | < 100 | < 100 |  | < 100 |  |  |  |
|  | CC(C)C[C@@H]1NC(=O)[C@H](Cc2c[nH]cn2)NC(=O)[C@H](Cc2c[nH]c3ccccc23)NC(=O)[C@H](C)NC(=O)[C@@H]2CSSC[C@H](NC(=O)[C@H](Cc3c[nH]c4ccccc34)NC(=O)[C@H](C(C)C)NC(=O)[C@H](CC(C)C)NC(=O)[C@H](CCC(=O)O)NC(=O)CNC1=O)C(=O)N[C@@H]([C@@H](C)O)C(=O)N1CCC[C@@H]1C(=O)N1C[C@@H](NC(=O)CCCc3cn(CCCCCC(=O)NC(COCCC(=O)NCCOCCOCCOCCOC[C@H]4OC[C@H](Nc5nccc(C(F)(F)F)n5)[C@@H](O)[C@H]4O)COCCC(=O)NCCOCCOCCOCCOC[C@H]4OC[C@H](Nc5nccc(C(F)(F)F)n5)[C@@H](O)[C@H]4O)nn3)C[C@H]1C(=O)N[C@@H](CC(=O)O)C(=O)N2 [Compound 53] | < 100 | < 100 | < 100 | < 100 |  | < 100 | < 100 | < 100 |
|  | CC(C)C[C@@H]1NC(=O)[C@H](C)NC(=O)CNC(=O)[C@H](CC(C)C)NC(=O)[C@H](Cc2c[nH]cn2)NC(=O)[C@H](Cc2c[nH]c3ccccc23)NC(=O)[C@H](C)NC(=O)[C@@H]2CSSC[C@H](NC(=O)[C@H](Cc3c[nH]c4ccccc34)NC(=O)[C@H](C(C)C)NC1=O)C(=O)N[C@@H]([C@@H](C)O)C(=O)N1CCC[C@@H]1C(=O)N1C[C@@H](NC(=O)CNC(COCCC(=O)NCCOCCOCCOCCOC[C@H]3OC[C@H](Nc4cncc(C(F)(F)F)n4)[C@@H](O)[C@H]3O)COCCC(=O)NCCOCCOCCOCCOC[C@H]3OC[C@H](Nc4cncc(C(F)(F)F)n4)[C@@H](O)[C@H]3O)C[C@H]1C(=O)N[C@@H](CC(N)=O)C(=O)N2 [Compound 79] (cyclo(ALVWCT[dP][X1](X2)NCAWHLG); disulfide 5-10) | < 100 | < 100 | < 100 |  | < 100 |  |  |  |
|  | CC(C)C[C@@H]1NC(=O)[C@H](Cc2cnc[nH]2)NC(=O)[C@H](Cc2c[nH]c3ccccc23)NC(=O)[C@H](C)NC(=O)[C@@H]2CSSC[C@H](NC(=O)[C@H](Cc3c[nH]c4ccccc34)NC(=O)[C@H](C(C)C)NC(=O)[C@H](CC(C)C)NC(=O)[C@H](CCC(=O)N(C)C)NC(=O)CNC1=O)C(=O)N[C@@H]([C@@H](C)O)C(=O)N1CCC[C@@H]1C(=O)N1C[C@@H](NC(=O)CNC(COCCC(=O)NCCOCCOCCOCCOC[C@H]3OC[C@H](Nc4cncc(C(F)(F)F)n4)[C@@H](O)[C@H]3O)COCCC(=O)NCCOCCOCCOCCOC[C@H]3OC[C@H](Nc4cncc(C(F)(F)F)n4)[C@@H](O)[C@H]3O)C[C@H]1C(=O)N[C@@H](C)C(=O)N2 [Compound 77] | < 100 | < 100 | < 100 |  | < 100 |  |  |  |
| < 100 | CC(C)C[C@@H]1NC(=O)[C@H](Cc2c[nH]cn2)NC(=O)[C@H](Cc2c[nH]c3ccccc23)NC(=O)[C@H](C)NC(=O)[C@@H]2CSSC[C@H](NC(=O)[C@H](Cc3c[nH]c4ccccc34)NC(=O)[C@H](C(C)C)NC(=O)[C@H](CC(C)C)NC(=O)[C@H](CCC(=O)O)NC(=O)CNC1=O)C(=O)N[C@@H]([C@@H](C)O)C(=O)N1CCC[C@@H]1C(=O)N1C[C@@H](NC(=O)CCOCCOCCOCCOCCNC(=O)CCCc3cn(CCCCCC(=O)NC(COCCC(=O)NCCOCCOCCOCCOC[C@@]45CO[C@@H](O4)[C@H](NC(=O)C(F)(F)F)[C@@H](O)[C@H]5O)COCCC(=O)NCCOCCOCCOCCOC[C@@]45CO[C@@H](O4)[C@H](NC(=O)C(F)(F)F)[C@@H](O)[C@H]5O)nn3)C[C@H]1C(=O)N[C@@H](CC(=O)O)C(=O)N2 [Compound 94] | < 100 | < 100 | < 100 |  |  |  |  |  |
|  | CC(=O)N[C@H]1[C@H](OCCOCCOCCOCCNC(=O)CCOCC(COCCC(=O)NCCOCCOCCOCCO[C@@H]2O[C@H](CO)[C@H](O)[C@H](O)[C@H]2NC(C)=O)NC(=O)CCCCCn2cc(CCCC(=O)NCCOCCOCCOCCOCCC(=O)N[C@H]3C[C@H]4C(=O)N[C@@H](CC(=O)O)C(=O)N[C@H]5CSSC[C@H](NC(=O)[C@H](Cc6c[nH]c7ccccc67)NC(=O)[C@H](C(C)C)NC(=O)[C@H](CC(C)C)NC(=O)[C@H](CCC(=O)O)NC(=O)CNC(=O)[C@H](CC(C)C)NC(=O)[C@H](Cc6c[nH]cn6)NC(=O)[C@H](Cc6c[nH]c7ccccc67)NC(=O)[C@H](C)NC5=O)C(=O)N[C@@H]([C@@H](C)O)C(=O)N5CCC[C@@H]5C(=O)N4C3)nn2)O[C@H](CO)[C@H](O)[C@@H]1O [Compound 84] | > 1000 | > 1000 | < 100 | > 1000 |  |  |  |  |
